# Test results from PubChem BioAssay (NCI).
# “And” between values parts separate entries of the source, which are not always exact repeats. Equal values may be shown once.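 The compound was tested at five concentrations on cells cultured in 96-well plates, with a 48-hour exposure period. GI50: concentration for 50% inhibition of growth. The concentration for full growth arrest is given as TGI.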
# Assays:
# Assay in all cases: NCI anticancer screen, dose series, 48 h
# [1] = test system: LXFL 529 NSCLC
# [2] = test system: DMS 273 small cell lung
# [3] = test system: SNB-78 CNS
# [4] = test system: RXF-631 renal
# [5] = test system: HOP-18 NSCLC
# [6] = test system: DLD-1 colon
# [7] = test system: DMS 114 small cell lung
# [8] = test system: XF 498 CNS
# [9] = test system: MDA-N
Structure (SMILES),TGI [1] [µM],TGI [2] [µM],TGI [3] [µM],TGI [4] [µM],TGI [5] [µM],TGI [6] [µM],TGI [7] [µM],TGI [8] [µM],GI50 [9] [µM],TGI [9],GI50 [1] [µM],GI50 [5] [µM],GI50 [6] [µM],GI50 [3] [µM]
O=C(CO)CC(=O)C(=O)Nc1ccccc1,> 100,> 100,> 100,> 100,> 100,> 100,> 100,–,–,–,–,–,–,–
CC(C)c1ccc(C2C3=C(N=C4SCC(=O)N42)C(=O)c2ccccc23)cc1 (stereo not drawn),> 100,> 100,–,> 100,–,> 100,> 100,> 100,–,–,–,–,–,–
COC(=O)C(=O)OC1(C(C)=O)CC2(c3ccccc3)OC1(c1ccccc1)c1ccccc12 (stereo not drawn),49.2,30,65,> 100,84.5,36.4,32,30.5,–,–,–,–,–,–
O=C1NC(=O)C2C(=O)NC(=O)C1C2(c1ccccc1)c1cc[nH]c1 (stereo not drawn),> 100,> 100,> 100,–,–,> 100,> 100,> 100,–,–,–,–,–,–
N#Cc1c(NN)nc(NN)c(C#N)c1-c1ccccc1,> 100,> 100,> 100,> 100,> 100,> 100,> 100,> 100,–,–,–,–,–,–
CCOC(=O)c1[nH]c(Br)c(-c2ccc(Br)cc2)c1Br,–,–,–,–,–,–,–,–,0.0979,0.505 µM and 0.273 µM,–,–,–,–
Cc1cc2nc(CCC(=O)O)c(=O)[nH]c2cc1C,> 100,–,> 100,> 100,> 100,> 100,> 100,> 100,–,–,–,–,–,–
CCOc1ccccc1NC(=O)CC1SC(=Nc2ccc([N+](=O)[O-])cc2)NC1=O (stereo not drawn),39.9,–,> 100,–,51.1,59,32,32.4,–,–,–,–,–,–
CC(=O)[CH-]C(=O)c1ccccc1.CC(=O)[CH-]C(=O)c1ccccc1.CC(C)CCCC(C)[C@H]1CCC2[C@@H]3CC=C4C[C@@H]([O-])CC[C@]4(C)C3CC[C@@]21C.CC[O-].[Ti+4] (stereo partly drawn),> 100,–,–,–,> 100,> 100,–,–,–,–,33.1,76,93.7,–
COc1c(OC)c(OC)c2c(c1OC)c(=O)c1ccccc1n2C,–,–,–,–,–,–,–,–,–,> 100 µM,–,–,–,–
Oc1cc(O)c2c(-c3c(O)c(-c4ccc(O)c(O)c4)[o+]c4cc(O)cc(O)c34)c(O)c(-c3ccc(O)c(O)c3)[o+]c2c1,> 100,> 100,> 100,> 100,36.4,> 100,92.8,87.6,–,–,–,–,–,–
CCCCCC/C=C1\CCC(CN2CCCC2)C1=O (stereo not drawn),11.4,25.5,60.2,42.2,32.9,18,29.4,31.4,–,–,–,–,–,–
CC1(CO)OC(n2cc(C(=O)NC(=O)OCc3ccccc3)c(=O)[nH]c2=O)CC1O (stereo not drawn),> 100,> 100,–,> 100,> 100,> 100,> 100,> 100,–,–,–,–,–,–
CC1(c2cccc3ccccc23)OC(=O)c2ccccc21 (stereo not drawn),> 100,28.6,> 100,70.7,–,75.2,38,45.2,–,–,–,–,–,–
O=C(CC1(O)C(=O)Nc2c(Cl)ccc(Cl)c21)c1ccc2ccccc2c1 (stereo not drawn),21.8,> 100,46.3,–,37.2,59,19.2,25.4,–,–,–,–,–,–
N[C@@H]1CCCC[C@H]1N.O=C([O-])C(=O)[O-].[Pt+4],> 100,–,> 100,–,> 100,> 100,–,–,–,–,2.36,34.3,3.46,19.8
N#CC(C(=O)/C(=N/N)C(C#N)c1ccccc1)c1ccccc1 (stereo not drawn),> 100,–,> 100,> 100,> 100,> 100,> 100,> 100,–,–,–,–,–,–
CC(=O)OC[C@]1(O)CC[C@@]23CC1C[C@@H]2CCC1C(C)(C)CCC[C@@]13C (stereo partly drawn),23.2,12.7,32.7,27.3,–,28.8,25.3,27.2,–,–,–,–,–,–
O=c1cc2ccccc2nn1Cc1cccc(Cl)c1,–,> 100,> 100,> 100,> 100,> 100,> 100,94.5,–,–,–,–,–,–
Oc1ccccc1C=NCc1ccco1,> 100,–,> 100,> 100,> 100,> 100,> 100,> 100,–,–,–,–,–,–
O=NNc1ccc(S(=O)(=O)c2ccccc2)cn1,–,–,–,–,–,–,–,–,–,> 100 µM,–,–,–,–
CCC/C(=N/NC(=O)C(N)=O)C(CC)C(=O)CCC(=O)N(Cc1ccccc1)Cc1ccccc1 (stereo not drawn),> 100,> 100,> 100,> 100,> 100,–,> 100,> 100,–,–,–,–,–,–
COc1cc(/C=C(\C#N)C(=O)c2ccccc2)ccc1O,> 100,–,> 100,–,–,–,–,> 100,–,–,–,–,–,–
N#CC(C(=O)CCC(=O)C(C#N)c1ccccc1)c1ccccc1 (stereo not drawn),> 100,> 100,> 100,–,> 100,> 100,> 100,> 100,–,–,–,–,–,–
CC(=O)[CH-]C(=O)c1ccccc1.CC(=O)[CH-]C(=O)c1ccccc1.CC1(C)C2CCC1(C)C([O-])C2.CC1(C)C2CCC1(C)C([O-])C2.[Ti+4],> 100,–,–,–,> 100,> 100,–,–,–,–,23.7,36.6,29.2,–
CCCCCCCCCCCCCC(=O)CC(=O)c1c(O)cccc1O,> 100,41.1,75.5,–,> 100,> 100,47.1,51.2,–,–,–,–,–,–
N#C/C(=C/c1ccc[nH]1)P(=O)(O)O,> 100,> 100,> 100,–,–,> 100,> 100,> 100,–,–,–,–,–,–
CC(=O)[CH-]C(=O)c1ccccc1.CC(=O)[CH-]C(=O)c1ccccc1.[Eu+3].[OH-].[OH3+],> 100,–,–,–,> 100,–,–,–,–,–,> 100,> 100,–,–
COc1ccc2c(=O)c3ccoc3n(CC=C(C)C)c2c1,–,–,–,–,–,–,–,–,–,> 100 µM,–,–,–,–
Clc1cc(Cc2cc(Cl)c(Cl)c3c2OCOC3)c2c(c1Cl)COCO2,> 100,> 100,> 100,–,97.9,> 100,> 100,–,–,–,–,–,–,–
